Key:
[1] = Stability Study; type: physicochemical; conditions: for Appearance / Crystal Form / Product Purity: 30° C. ± 2° C./RH 65% ± 5%
Description: The stability of the new crystal form prepared by the method of Example 1 of the present invention was studied.

[2] = Flowability Study; type: physicochemical
Description: The flowability of the new crystal form prepared in Examples 1, 2 and 3 of the present invention was studied.

[3] = Determination of Absolute Bioavailability; conditions: rat, in vivo; rats, intravenous administration and oral administration

Structure (SMILES): CC(C)OC(=O)C(C)(C)N[P@](=O)(CO[C@H](C)Cn1cnc2c(N)ncnc21)Oc1ccccc1.O=C(O)/C=C/C(=O)O [crystal form A, 9-[(R)-2-[[(S)-[[[1-(isopropoxycarbonyl)-1-methyl]ethyl]amino]phenoxyphosphinyl]methoxyl]propyl]adenine fumarate]
- Appearance ([1]; 0 month): off-white powder
- Crystal Form ([1]; 0 month): Crystal form A
- Product Purity ([1]; 0 month): 98.97%
- Appearance ([1]; 3 months): off-white powder
- Crystal Form ([1]; 3 months): Crystal form A
- Product Purity ([1]; 3 months): 98.95%
- Appearance ([1]; 6 months): off-white powder
- Crystal Form ([1]; 6 months): Crystal form A
- Product Purity ([1]; 6 months): 98.92%
- Stability ([1]; room temperature): stable at room temperature
- Chemical degradation in the stability test ([1]; stability test): did not undergo chemical degradation
- Crystal form transformation in the stability test ([1]; stability test): did not undergo transformation
- Flowability [2]: good flowability
- Repose Angle ([2]; listed as Example 1): 36°
- Repose Angle ([2]; listed as Example 2): 35°
- Repose Angle ([2]; listed as Example 3): 34°
- bioavailability [3]: 81%
